Measured values from PMC9934367, “Functional impact of subunit composition and compensation on Drosophila melanogaster nicotinic receptors–targets of neonicotinoids” (PLOS Genetics, 2023).

How the values were obtained:
[1] = system: D. melanogaster; conditions: Dα2 knockout; cited from earlier work
[2] = target: T1, Dα3/Dβ1 nAChR (Drosophila melanogaster, UniProt P04755+Q9W3G6); experiment: cell-based; format: cell-based, D. melanogaster
T1 construct: Dβ1 (NP_523927); expressed in transfected cells; host or cells: Xenopus laevis oocytes (cRNA injection)
Experimental: (§1) cDNAs of the nAChR subunits and co-factors were cloned into pcDNA3.1 (+) vector (Thermo Fisher Scientific). The accession numbers of the nAChR subunits and cofactors are as follows: Dα1 (NP_524481), Dα2 (NP_524482), Dα3 (NP_525079), Dα4 (CAB77445), Dβ1 (NP_523927), Dβ2 (NP_524483), Dβ3 (NP_525098), DmRIC-3 (CAP16647), DmUNC-50 (NP_649813), and DmTMX3 (NP_648847). cRNAs were prepared using the mMESSAGE mMACHINE T7 ULTRA Transcription Kit (Thermo Fisher Scientific, #AM1345) according to the manual with the cDNA template which was cut with appropriate restriction enzymes at the 3’ end of the cDNA.
(§2) We minimised the use of X. laevis according to the UK Animals (Scientific Procedures) Act, 1986. […] Oocytes were defolliculated after collagenase treatment in Ca^2+-free standard oocyte saline (Ca^2+-free SOS). cRNAs of the nAChR subunits and co-factors mixed at a concentration of 0.1 mg/mL was injected into oocytes at a volume of 50 nL. Then the oocytes were incubated in the incubation medium (SOS supplemented with sodium pyruvate (Nacalai Tesque, #13058–12), penicillin-streptomycin (MilliporeSigma, #P4333), gentamycin (Nacalai Tesque, #16672–04), and 4% horse serum (Thermo Fisher Scientific, #26050–070) for 3−4 days prior to electrophysiology.
(§3) Each defolliculated X. laevis oocyte was secured in a Perspex recording chamber and perfused with the standard oocyte saline (SOS) containing 0.5 μM atropine (SOSA) at a flow rate of 7−10 mL/min [48]. Two glass electrodes filled with 2 M KCl were impaled into each oocyte and the membrane potential was clamped at -100 mV. […] The peak amplitude of the response was measured and analysed by pCLAMP (Molecular Devices, USA).
(§4) Y=Imax/1+10^(logEC50‐X)nH
(§5) Where Y is the normalised response, X is log[ligand (M)], EC50 is the half maximal concentration (M), Imax is the maximum normalised response and nH is the Hill coefficient.

[3] = target: T2, Dα2/Dα3/Dβ1 nAChR (Drosophila melanogaster, UniProt P04755+P17644+Q9W3G6); experiment: Voltage-clamp electrophysiology, nAChR expressed in X. laevis oocytes; format: cell-based, D. melanogaster
T2 construct: Dα2 (NP_524482); Dβ1 (NP_523927); expressed in transfected cells; host or cells: Xenopus laevis oocytes (cRNA injection)
Experimental: as §1, §2, §3, §4, §5

[4] = target: T3, Dα3/Dβ1/Dβ2 nAChR (Drosophila melanogaster, UniProt P04755+P25162+Q9W3G6); experiment: as above; format: cell-based, D. melanogaster
T3 construct: Dβ1 (NP_523927); Dβ2 (NP_524483); expressed in transfected cells; host or cells: Xenopus laevis oocytes (cRNA injection)
Experimental: as §1, §2, §3, §4, §5

[5] = system: Dα1/chicken β2 nAChR; conditions: cited from earlier work
[6] = system: Dα2/chicken β2 nAChR; conditions: cited from earlier work
[7] = system: D. melanogaster nAChRs; experiment: Comparison of agonist activity between nAChRs expressed in X. laevis oocytes (one-way ANOVA, Kruskal-Wallis); format: cell-based
Experimental: as §2, §3, §4, §5
Prism software was employed for the statistical analyses. […] One-way ANOVA was used to analyse the differences of the ligand agonist activity in terms of pEC50 on the various nAChRs expressed in X. laevis as well as data obtained with D. melanogaster larvae and adults.

Molecule: CCN(Cc1ccc(Cl)nc1)/C(=C/[N+](=O)[O-])NC [nitenpyram]
- sensitivity in larvae, effect of knockout [1]: enhanced

Molecule: α-Bungarotoxin [α-BTX]
- blocking effect on ACh-induced response [2]: minimal blocking effect
- blocking effect on ACh-induced response [3]: minimal blocking effect
- blocking effect on ACh-induced response [4]: minimal blocking effect
- sensitivity to α-BTX [5]: sensitive
- sensitivity to α-BTX [6]: resistant

Molecule: N#C/N=C1\SCCN1Cc1ccc(Cl)nc1 [Thiacloprd]
- Difference of Imax values, nAChRs compared ([7]; Dα1/Dα2/Dα3/Dβ1/Dβ2 vs. Dα1/Dα2/Dα4/Dβ1/Dβ2): -0.007
- Difference of Imax values, nAChRs compared ([7]; Dα1/Dα2/Dα3/Dβ1/Dβ2 vs. Dα1/Dα2/Dβ1/Dβ2/Dβ3): 0.036
- Difference of Imax values, nAChRs compared ([7]; Dα1/Dα2/Dα3/Dβ1/Dβ2 vs. Dα1/Dα3/Dα4/Dβ1/Dβ2): 0.033
- Difference of Imax values, nAChRs compared ([7]; Dα1/Dα2/Dα3/Dβ1/Dβ2 vs. Dα1/Dα3/Dβ1/Dβ2/Dβ3): -0.030
- Difference of Imax values, nAChRs compared ([7]; Dα1/Dα2/Dα3/Dβ1/Dβ2 vs. Dα2/Dα3/Dα4/Dβ1/Dβ2): 0.041
- Difference of Imax values, nAChRs compared ([7]; Dα1/Dα2/Dα3/Dβ1/Dβ2 vs. Dα2/Dα3/Dβ1/Dβ2/Dβ3): 0.049
